Laboratory results as given in US7087588B2, “Nitric oxide donors capable of reducing toxicity from drugs” (Nicox S.A., priority 1996, dated 2006).
Marks after values point to notes of the source that are not given here.

What was measured:
[1] = Renal functionality and gastrointestinal tolerability in hypertensive rats after diclofenac, with or without DON-NO; type: in vivo, Sprague-Dawley male rats; settings: spontaneously hypertensive rats, diclofenac 12 mg/kg i.p. daily, 5 days; nitroglycerin 3 mg/kg s.c.; vehicle = 100
guinea pigs = test: Capsaicin induced bronchoconstriction in enalapril-treated guinea pigs; type: in vivo, guinea pig; settings: enalapril 10 mg/kg and/or NO-naproxen 10 mg/kg intraduodenally, capsaicin 1 μg/kg i.v. 45 minutes later, vehicle = 100
Experimental: Capsaicin-induced bronchoconstriction in guinea pigs is an animal model related to the ability of angiotensin-converting-enzyme inhibitors to provoke cough in patients (Subissi et al, J. Cardiovasc. Pharmacol. 20/1, 139–146, 1992).
Experimental conditions were as previously described by Del Soldato et al (J. Pharmacological Methods 5, 279, 1981). Female guinea pigs weighing 300–400 g were anesthetized through intraperitoneal injection of sodiun 5,5 diethylbarbiturate (200 mg/kg) and kept under artificial respiration at constant positive pressure. Jugular right vein was incannuled for the administration of the compounds. Animals received intraduodenally enalapril (10 mg/kg), vehicle (carboxymethyl cellulose 2% by weight) and/or NO-naproxen (10 mg/kg). Forty-five minutes later, it was injected intravenously 0.1 ml capsaicin (1 μg/kg). Before and after capsaicin injection, tidal air changes were measured by means of modified Konzett apparatus connected to a polygraph amplifier.
Results were calculated as ratio of the responses obtained before and after the administration of each treatment, expressed as % of the vehicle (control) response and shown in Table 7.

Washed human platelets = test: Nitric oxide generation by chemiluminescence, platelets (method b); type: cell-based; settings: incubation of 100 μmoles of NO donor, 5 minutes
Experimental: Washed human platelets, prepared analogously with what described by Radomski et al, (Br. J. Pharmacol. 92, 639–1987), were utilized. Aliquots of 0.4 ml were incubated with scalar concentrations of NO donors (1–100 μg/ml) for 5 minutes. The incubation medium (f.i. Tyrode) was then analysed to determine the capacity of generating NO, by determination of nitric oxide by chemiluminiscence and cGMP, with the modalities described in the previous paragraph, for the analyses carried out on the endothelial cells. As to the determination by chemiluminescence, also in this case, on the basis of a calibration curve, prepared with scalar concentrations of nitrite, it was possible to determine quantitatively the concentration of generated NO. For instance, after incubation of 100 μmoles of nicorandil, an amount equal to 35 μmoles of NO was generated.

[2] = tested on: Cells of the human umbilical vein; test: Nitric oxide generation by chemiluminescence, endothelial cells (method a); type: cell-based; settings: incubation of 100 μmoles of NO donor, 5 minutes
Experimental: In particular the test relates to the generation of nitric oxide from the NO donors of the present invention, among which, for instance, nitroglycerine, nicorandil, nitro-prussiate, etc., when they are put in the presence of endothelial cells (method a), or platelets (method b). Cells of the human umbilical vein, spread on the plate, with density of 10^3 cells/plate were incubated with scalar concentrations of NO donor (1–100 μg/ml) for 5 minutes. The incubation medium (physiologic solvent, for instance Tyrode) was then analyzed to determine the capacity to generate NO, by means of: • 1) the determination of nitric oxide by chemiluminescence; • 2) the cGMP determination (cyclic GMP No. 2715 of the above mentioned Merck). […] The nitrites/nitrates present in the medium in these conditions are converted into NO which is then determined after its reaction with ozone, with consequent generation of light. As it usually occurs in the devices measuring chemiluminescence, the produced luminescence is directly proportional to the NO levels generated and can be measured by the suitable photomultiplier unit of a chemiluminescence analyser. The photomultiplier converts the incident light into electric voltage, which is then quantitatively recorded. […]

rats = test: Tolerance to nitroglycerin after repeated subcutaneous administration in rats; type: in vivo, rat; settings: nitroglycerin given with enalapril, repeated subcutaneous administration 1 mg/kg per day

SMILES: O=C(O)Cc1ccccc1Nc1c(Cl)cccc1Cl [DICLOFENAC, diclofenac]
- BLOOD CREATININE, percent variation with respect to the control values [1]: 287* PERCENT

SMILES: CCOC(=O)[C@H](CCc1ccccc1)N[C@@H](C)C(=O)N1CCC[C@H]1C(=O)O [enalapril]
- BRONCHOCONSTRICTION (%), % of the vehicle (control) response (guinea pigs): 290%

SMILES: O=C(NCCO[N+](=O)[O-])c1cccnc1 [nicorandil, N-[2-(nitrooxy)ethyl]-3-pyridine-carboxamide]
- amount of NO generated (Washed human platelets): 35 µmol
- amount of NO generated [2]: about 10 μmoles

SMILES: O=[N+]([O-])OCC(CO[N+](=O)[O-])O[N+](=O)[O-] [nitroglycerin, 1,2,3 propanetriol trinitrate]
- tolerance after repeated administration (rats): did not cause any tolerance
